# Patent publication US7358214B2, “Pyrazolyl carboxanilides for controlling unwanted microorganisms” (Bayer CropScience AG, priority 2003, dated 2008)
# Test system: Alternaria mali
# Experiment: In vitro test for the ED50 determination in microorganisms
# Assay type: cell-based
# Settings: 50% inhibition of fungal growth, 22° C., 3-5 days, photometric at 620 nm
# Method: A methanolic solution of the active compound to be tested, mixed with emulsifier PS16, is pipetted into the wells of a microtiter plate. After the solvent has evaporated, 200 μl of potato dextrose medium are added to each well. Beforehand, a suitable concentration of spores or mycelium of the fungus to be tested was added to the medium. The resulting concentrations of active compound are 0.1, 1, 10 and 100 ppm. The resulting concentration of the emulsifier is 300 ppm. The plates are then incubated on a shaker at a temperature of 22° C. for 3-5 days, until sufficient growth can be observed in the untreated control. Evaluation is carried out photometrically at a wavelength of 620 nm. The dose of active compound which causes 50% inhibition of fungal growth compared to the untreated control (ED50) is calculated from data measured at different concentrations.
row,Structure (SMILES),ED50 value in ppm [ppm]
1,CC(CC(C)(C)C)c1ccccc1NC(=O)c1c(C(F)(F)F)nn(C)c1F (stereo not shown) [drawing 41],<0.1
2,CCC(C)(C)CC(C)c1ccccc1NC(=O)c1c(C(F)(F)F)nn(C)c1F (stereo not shown) [drawing 43],<0.1
3,CC(C)CC(C)c1ccccc1NC(=O)c1c(C(F)(F)F)nn(C)c1F (stereo not shown) [drawing 42],0.28

# Test system: Sphaerotheca fuliginea
# Experiment: Spaerotheca test (cucumber)/protective
# Assay type: in vivo
# Settings: application rate 100 g/ha; protective; evaluation 7 days after inoculation
# Method: (§1) [table] To produce a suitable preparation of active compound, 1 part by weight of active compound is mixed with the stated amounts of solvents and emulsifier, and the concentrate is diluted with water to the desired concentration. To test for protective activity, young plants are sprayed with the preparation of active compound at the stated application rate. After the spray coating has dried on, the plants are inoculated with an aqueous spore suspension of Sphaerotheca fuliginea. The plants are then placed in a greenhouse at about 23° C. and a relative atmospheric humidity of about 70%. Evaluation is carried out 7 days after the inoculation. 0% means an efficacy which corresponds to that of the control, whereas an efficacy of 100% means that no infection is observed.
row,Structure (SMILES),Efficacy in % [%]
1,CCC(C)(C)CC(C)c1ccccc1NC(=O)c1c(C(F)(F)F)nn(C)c1F (stereo not shown) [drawing 34],98
2,CC(CC(C)(C)C)c1ccccc1NC(=O)c1c(C(F)(F)F)nn(C)c1F (stereo not shown) [drawing 32],100
3,CC(C)CC(C)c1ccccc1NC(=O)c1c(C(F)(F)F)nn(C)c1F (stereo not shown) [drawing 33],100

# Test system: Puccinia recondita
# Experiment: Puccinia test (wheat)/protective
# Assay type: in vivo
# Settings: application rate 500 g/ha; protective; evaluation 10 days after inoculation
# Method: • Solvent: 25 parts by weight of N,N-dimethylacetamide • Emulsifier: 0.6 part by weight of alkylaryl polyglycol ether To produce a suitable preparation of active compound, 1 part by weight of active compound is mixed with the stated amounts of solvent and emulsifier, and the concentrate is diluted with water to the desired concentration. To test for protective activity, young plants are sprayed with the preparation of active compound at the stated application rate. After the spray coating has dried on, the plants are sprayed with a conidia suspension of Puccinia recondita. The plants remain in an incubation cabin at 20° C. and 100% relative atmospheric humidity for 48 hours. The plants are then placed in a greenhouse at a temperature of about 20° C. and a relative atmospheric humidity of 80% to promote the development of rust pustules. Evaluation is carried out 10 days after the inoculation. 0% means an efficacy which corresponds to that of the control, whereas an efficacy of 100% means that no infection is observed.
row,Structure (SMILES),Efficacy in % [%]
1,CC(C)CC(C)c1ccccc1NC(=O)c1c(C(F)(F)F)nn(C)c1F (stereo not shown) [drawing 31],100
2,CC(CC(C)(C)C)c1ccccc1NC(=O)c1c(C(F)(F)F)nn(C)c1F (stereo not shown) [drawing 30],100

# Test system: Venturia inaequalis
# Experiment: Venturia test (apple)/protective
# Assay type: in vivo
# Settings: application rate 100 g/ha; protective; evaluation 10 days after inoculation
# Method: as §1, with “conidia” for “spore”, “the apple scab pathogen Venturia inaequalis and then remain in an incubation cabin at about 20° C. and 100% relative atmospheric humidity for 1 day.” for “Sphaerotheca fuliginea.”, “21°” for “23°”, “90%.” for “70%.”, “10” for “7”
row,Structure (SMILES),Efficacy in % [%]
1,CCC(C)(C)CC(C)c1ccccc1NC(=O)c1c(C(F)(F)F)nn(C)c1F (stereo not shown) [drawing 37],99
2,CC(CC(C)(C)C)c1ccccc1NC(=O)c1c(C(F)(F)F)nn(C)c1F (stereo not shown) [drawing 35],100
3,CC(C)CC(C)c1ccccc1NC(=O)c1c(C(F)(F)F)nn(C)c1F (stereo not shown) [drawing 36],100

# Test system: not listed separately
# Experiment: logP determination by HPLC on reversed-phase column (C 18), pH 2.3
# Assay type: physicochemical
# Settings: reversed-phase HPLC column (C 18), HPLC reversed-phase C 18, 43° C.
# Method: The logP values given in the preparation examples and the tables above are determined in accordance with EEC Directive 79/831 Annex V.A8 by HPLC (High Performance Liquid Chromatography) on a reversed-phase column (C 18). Temperature: 43° C. The determination is carried out in the acidic range at pH 2.3 using the mobile phases 0.1% aqueous phosphoric acid and acetonitrile; linear gradient from 10% acetonitrile to 90% acetonitrile. Calibration is carried out using unbranched alkan-2-ones (having 3 to 16 carbon atoms) with known logP values (determination of the logP values by retention times using linear interpolation between two successive alkanones).
row,chromatographic logP,Structure (SMILES)
1,4.45,CCC(C)(C)CC(C)c1ccccc1NC(=O)c1c(C(F)(F)F)nn(C)c1F (stereo not shown) [Example 3]
2,3.88,CC(C)CC(C)c1ccccc1NC(=O)c1c(C(F)(F)F)nn(C)c1F (stereo not shown) [Example 2]
3,4.14,"CC(CC(C)(C)C)c1ccccc1NC(=O)c1c(C(F)(F)F)nn(C)c1F (stereo not shown) [Example 1, [5-fluoro-1-methyl-3-(trifluoromethyl)pyrazol-4-yl]-N-[2-(1,3,3-trimethylbutyl)phenyl]carbox-amide]"
4,3.92,CC(C)CC(C)c1cc(F)ccc1NC(=O)c1c(C(F)(F)F)nn(C)c1F (stereo not shown) [Example 5]
5,4.27,CCC(CC(C)C)c1ccccc1NC(=O)c1c(C(F)(F)F)nn(C)c1F (stereo not shown) [Example 4]

# Test system: Botrytis cinerea
# Experiment: Botrytis test (bean)/protective
# Assay type: in vivo
# Settings: application rate 500 g/ha; protective; evaluation two days after inoculation
# Method: [table] To produce a suitable preparation of active compound, 1 part by weight of active compound is mixed with the stated amounts of solvents and emulsifier, and the concentrate is diluted with water to the desired concentration. To test for protective activity, young plants are sprayed with the preparation of active compound at the stated application rate. After the spray coating has dried on, 2 small pieces of agar colonized by Botrytis cinerea are placed onto each leaf. The inoculated plants are placed in a dark chamber at about 20° C. and 100% relative atmospheric humidity. Two days after the inoculation, the size of the infected areas on the leaves is evaluated. 0% means an efficacy which corresponds to that of the control, whereas an efficacy of 100% means that no infection is observed.
row,Structure (SMILES),Efficacy in % [%]
1,CC(C)CC(C)c1ccccc1NC(=O)c1c(C(F)(F)F)nn(C)c1F (stereo not shown) [drawing 39],100
2,CCC(C)(C)CC(C)c1ccccc1NC(=O)c1c(C(F)(F)F)nn(C)c1F (stereo not shown) [drawing 40],95
3,CC(CC(C)(C)C)c1ccccc1NC(=O)c1c(C(F)(F)F)nn(C)c1F (stereo not shown) [drawing 38],100
